Assay results from patent US5578596A, “2-alkoxy-5,6,7,8-tetrahydroquinoxaline derivatives, and production method and use thereof” (Asahi Kasei Kogyo Kabushiki Kaisha, priority 1992, dated 1996).

Assays:
[1] = molecular target: T1, serotonin 1A (5HT1A) receptor (Rattus norvegicus, UniProt P19327); assay: Affinity for serotonin 1A (5HT1A) receptor: inhibition of 3H-8-OH-DPAT binding to rat hippocampal membrane fraction; conditions: test compound as hydrochloride
T1 construct: The resultant precipitate was used as a rat hippocampal membrane fraction in the following procedures; from tissue; host or cells: hippocampal membrane fraction of male SD rat (7 weeks old; animals from Charles River)
T1 sequence (P19327 1-422): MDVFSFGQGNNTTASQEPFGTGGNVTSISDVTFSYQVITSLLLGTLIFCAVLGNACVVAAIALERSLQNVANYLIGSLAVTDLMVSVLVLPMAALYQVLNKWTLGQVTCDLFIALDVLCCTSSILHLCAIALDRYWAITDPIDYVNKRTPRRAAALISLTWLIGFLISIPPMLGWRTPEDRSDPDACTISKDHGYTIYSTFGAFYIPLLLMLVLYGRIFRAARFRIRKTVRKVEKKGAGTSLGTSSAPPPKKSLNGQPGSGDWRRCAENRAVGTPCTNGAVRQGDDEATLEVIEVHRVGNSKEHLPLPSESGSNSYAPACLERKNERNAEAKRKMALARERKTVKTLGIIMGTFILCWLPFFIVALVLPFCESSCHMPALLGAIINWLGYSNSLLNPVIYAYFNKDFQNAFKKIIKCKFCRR
Experimental: 1. Affinity for serotonin 1A (5HT1A) receptor
(A) Preparation of rat hippocampal membrane fraction
A male SD strain rat (7-week old; Charles River) was decapitated, and brain was taken out therefrom quickly. 50 mM Tris-HCl buffer (pH 7.4) was added to the brain under ice cooling to obtain a suspension. The resultant suspension was homogenized, and then subjected to centrifugation at 48000 g for 15 minutes, to thereby obtain a precipitate. The precipitate was resuspended in the same Tris-HCl buffer as used above. The resultant suspension was incubated at 30° C. for 20 minutes to decompose endogenous serotonin of the rat hippocampal membrane, followed by centrifugation at 48000 g for 15 minutes to thereby obtain a precipitate. The resultant precipitate was used as a rat hippocampal membrane fraction in the following procedures.
(B) Method for the evaluation of the binding ability of ^3 H-8-hydroxy-dipropylaminotetralin (^3 H-8-OH-DPAT) to serotonin 1A receptor
The rat hippocampal membrane fraction prepared in step (A) above (about 100 to 200 μg in terms of proteins) was reacted with 0.5 nM (final concentration) ^3 H-8-OH-DPAT (which is commercially available from DuPont-NEN Research Products) and 10 μM (final concentration) pargyline (which is commercially available from Sigma Chemical Company) at 30° C. for 30 minutes to effect a reaction. The resultant reaction mixture was subjected to suction filtration using a Whatman GF/C filter, to thereby terminate the reaction. The radio-activity of ^3 H-8-OH-DPAT adsorbed on the filter was determined using a liquid scintillation counter. The obtained value is regarded as a total amount (TB) of specifically binding ^3 H-8-OH-DPAT and non-specifically binding ^3 H-8-OH-DPAT.
On the other hand, substantially the same procedure as mentioned above was repeated, except that 10 μM (final concentration) serotonin was added to the ^3 H-8-OH-DPAT and pargyline. The radioactivity of ^3 H-8-OH-DPAT adsorbed on the filter was determined in the same manner as mentioned above. The obtained value is regarded as the amount (NB) of non-specifically binding ^3 H-8-OH-DPAT.
Further, substantially the same procedure as mentioned above was repeated, except that, instead of serotonin, a test compound was used in a predetermined concentration. The radioactivity of ^3 H-8-OH-DPAT adsorbed on the filter was determined in the same manner as mentioned above. The obtained value is regarded as the amount (DTB) of binding ^3 H-8-OH-DPAT.
(C) Calculation of Ki value
The inhibition ratio of the test compound (at a certain concentration) against the binding of 3H-8-OH-DPAT (the inhibition ratio is hereinafter referred to simply as "binding inhibition ratio") was calculated according to the following formula:
Binding inhibition ratio (%)=100-(DTB-NB).div.(TB-NB)×100
With respect to each of the test compounds, the binding inhibition ratios at various concentrations (from a higher concentration to a lower concentration) were determined. The binding inhibition ratios were plotted, taking the logarithmic value of the concentration of test compound as the abscissa value, and the binding inhibition ratio as the ordinate value. Then, a curve was drawn by non-linear least square method.
The Ki value was determined according to the following formula:
[L] is the concentration (0.2 nM) of a radioactive ligand (^3 H-8-OH-DPAT) used in the test;

[2] = test system: Suncus murinus (motion sickness emesis); assay: Activities against motion sickness: acceleration-stimulus induced emesis in suncus; assay type: in vivo; conditions: 30 min before acceleration-stimulus (4 cm, 1 Hz), observed 10 min, hydrochloride, 4 suncus
Description: The activities of individual compounds against motion sickness were examined using Suncus murinus. Suncus murinus is a small animal belonging to the Soricidae family. It has been known that suncus is likely to suffer from motion sickness and is susceptible to occurrence of emesis [see "Seitai-no-kagaku (Science of living body)", 41, 538 (1990)]. Suncus is likely to show symptoms like the symptoms of human motion sickness under the stimulus of simple acceleration, finally leading to the occurrence of emesis. It has been recognized that motion sickness is caused by the occurrence of disorder in information, such as vision, equilibrium sense and the like, or by a stimulus which has never been memorized. Further, it has been recognized that the disorder in the inner earvestibular nucleus pathway and the high-order function of brain take part in the occurrence of motion sickness. Therefore, medicines capable of suppressing the occurrence of emesis of suncus would be useful for preventing and treating motion sickness, space sickness, emesis, dizziness and the like.
In this test, test compounds were individually administered intraperitoneally to suncus.
The time for occurrence of emesis was measured with respect to each of the test compounds, and the results are shown in Table 3.

| Structure (SMILES) | Ki [1] | Time for occurrence of emesis ([2]; 3 mg/kg intraperitoneal) | Time for occurrence of emesis ([2]; 1 mg/kg intraperitoneal) |
| --- | --- | --- | --- |
| c1cnc(N2CCN(CCCCOc3cnc4c(n3)CCCC4)CC2)nc1 [Compound 301, 2-[4-{4-(2-Pyrimidinyl)-1-piperazinyl}butoxy]-5,6,7,8-tetrahydroquinoxaline] | 6 nM | Emesis did not occur |  |
| Cc1nc2c(nc1OCCCCN1CCN(c3ccccn3)CC1)CCCC2 [Compound 409] | 16 nM |  |  |
| Cc1nc2c(nc1OCCCCN1CCN(c3ncccn3)CC1)CCCC2 [Compound 410] | 24 nM |  |  |
| Cc1cc(C)nc(N2CCN(CCCCOc3cnc4c(n3)CCCC4)CC2)n1 [Compound 481, 2-[4-{4-(4,6-Dimethyl-2-pyrimidinyl)-1-piperazinyl}butoxy]-5,6,7,8-tetrahydroquinoxaline] | 5.3 nM |  |  |
| Clc1cccc(N2CCN(CCCCOc3cnc4c(n3)CCCC4)CC2)n1 [Compound 500, 2-[4-{4-(6-Chloro-2-pyridyl)-1-piperazinyl}butoxy]-5,6,7,8-tetrahydroquinoxaline] | 2.1 nM |  | Emesis did not occur |
| Cc1cccc(N2CCN(CCCCOc3cnc4c(n3)CCCC4)CC2)n1 [Compound 501, 2-[4-{4-(6-Methyl-2-pyridyl)-1-piperazinyl}butoxy]-5,6,7,8-tetrahydroquinoxaline] | 0.6 nM |  | Emesis did not occur |
| Clc1cccnc1N1CCN(CCCCOc2cnc3c(n2)CCCC3)CC1 [Compound 502, 2-[4-{4-(3-Chloro-2-pyridyl)-1-piperazinyl}butoxy]-5,6,7,8-tetrahydroquinoxaline] | 13 nM |  |  |
| Cc1ccnc(N2CCN(CCCCOc3cnc4c(n3)CCCC4)CC2)n1 [Compound 504, 2-[4-{4-(4-Methyl-2-pyrimidinyl)-1-piperazinyl}butoxy]-5,6,7,8-tetrahydroquinoxaline] | 3.9 nM |  | Emesis did not occur |
| c1ccc(N2CCN(CCCCCOc3cnc4c(n3)CCCC4)CC2)nc1 [Compound 511, 2-[5-{4-(2-Pyridyl)-1-piperazinyl}pentoxy]-5,6,7,8-tetrahydroquinoxaline] | 8.4 nM |  |  |
| c1cnc(N2CCN(CCCCCOc3cnc4c(n3)CCCC4)CC2)nc1 [Compound 512, 2-[5-{4-(2-pyrimidinyl)-1-piperazinyl}pentoxy]-5,6,7,8-tetrahydroquinoxaline] | 23 nM |  |  |
| N#Cc1cccnc1N1CCN(CCCCOc2cnc3c(n2)CCCC3)CC1 [Compound 514, 2-[4-{4-(3-Cyano-2-pyridyl)-1-piperazinyl}butoxy]-5,6,7,8-tetrahydroquinoxaline] | 4.8 nM |  |  |
| CCOc1cccc(N2CCN(CCCCOc3cnc4c(n3)CCCC4)CC2)n1 [Compound 524, 2-[4-{4-(6-Ethoxy-2-pyridyl)-1-piperazinyl}butoxy]-5,6,7,8-tetrahydroquinoxaline] | 1.9 nM |  | Emesis did not occur |
| c1ccc(N2CCN(CCCOc3cnc4c(n3)CCCC4)CC2)nc1 [Compound 537, 2-[3-{4-(2-Pyridyl)-1-piperazinyl}propoxy]-5,6,7,8-tetrahydroquinoxaline] | 14 nM |  |  |
| c1cnc(N2CCN(CCCOc3cnc4c(n3)CCCC4)CC2)nc1 [Compound 538, 2-[3-{4-(2-pyrimidinyl)-1-piperazinyl}propoxyl]-5,6,7,8-tetrahydroquinoxaline] | 25 nM |  |  |
| COc1cccc(N2CCN(CCCCOc3cnc4c(n3)CCCC4)CC2)n1 [Compound 539, 2-[4-{4-(6-Methoxy-2-pyridyl)-1-piperazinyl}butoxy]-5,6,7,8-tetrahydroquinoxaline] | 1.3 nM |  | Emesis did not occur |
| COc1cc(OC)nc(N2CCN(CCCCOc3cnc4c(n3)CCCC4)CC2)n1 [Compound 549, 2-[4-{4-(4,6-Dimethoxy-2-pyrimidinyl)-1-piperazinyl}butoxy]-5,6,7,8-tetrahydroquinoxaline] | 6.6 nM |  |  |
| COc1cccnc1N1CCN(CCCCOc2cnc3c(n2)CCCC3)CC1 [Compound 557, 2-[4-{4-(3-Methoxy-2-pyridyl)-1-piperazinyl}butoxy]-5,6,7,8-tetrahydroquinoxaline] | 1.5 nM |  |  |
| Cc1cc(C)c(C#N)c(N2CCN(CCCCOc3cnc4c(n3)CCCC4)CC2)n1 [Compound 561, 2-[4-{4-(3-Cyano-4-6-dimethyl-2-pyridyl)-1-piperazinyl}butoxy]-5,6,7,8-tetrahydroquinoxaline] | 16 nM |  |  |
| COc1cc(C)nc(N2CCN(CCCCOc3cnc4c(n3)CCCC4)CC2)n1 [Compound 562, 2-[4-{4-(4-Methoxy-6-methyl-2-pyrimidinyl)-1-piperazinyl}butoxy]-5,6,7,8-tetrahydroquinoxaline] | 11 nM | Emesis did not occur |  |
| Cc1cc(C)nc(N2CCN(CCCCOc3cnc4c(n3)CCCC4)CC2)c1 [Compound 569, 2-[4-{4-(4,6-Dimethyl-2-pyridyl)-1-piperazinyl}butoxy]-5,6,7,8-tetrahydroquinoxaline] | 6.8 nM |  |  |
| Cc1ccc(C)c(N2CCN(CCCCOc3cnc4c(n3)CCCC4)CC2)n1 [Compound 598, 2-[4-{4-(3,6-Dimethyl-2-pyridyl)-1-piperazinyl}butoxy]-5,6,7,8-tetrahydroquinoxaline] | 25 nM |  |  |
| CCCOc1cccc(N2CCN(CCCCOc3cnc4c(n3)CCCC4)CC2)n1 [Compound 629, 2-[4-{4-(6-Propoxy-2-pyridyl)-1-piperazinyl}butoxy]-5,6,7,8-tetrahydroquinoxaline] | 1.8 nM | Emesis did not occur |  |
| CC(C)Oc1cccc(N2CCN(CCCCOc3cnc4c(n3)CCCC4)CC2)n1 [Compound 630, 2-[4-{4-(6-Isopropoxy-2-pyridyl)-1-piperazinyl}butoxy]-5,6,7,8-tetrahydroquinoxaline] | 3 nM | Emesis did not occur |  |
| FC(F)(F)c1ccnc(N2CCN(CCCCOc3cnc4c(n3)CCCC4)CC2)c1 [Compound 639, 2-[4-{4-(4-Trifluoromethyl-2-pyridyl)-1-piperazinyl}butoxy]-5,6,7,8-tetrahydroquinoxaline] | 11 nM |  |  |
| FC(F)(F)c1cccc(N2CCN(CCCCOc3cnc4c(n3)CCCC4)CC2)n1 [Compound 640, 2-[4-{4-(6-Trifluoromethyl-2-pyridyl)-1-piperazinyl}butoxy]-5,6,7,8-tetrahydroquinoxaline] | 5.2 nM |  |  |
